23 molecules from US20130030012A1, “COMPOUNDS” (Glaxo Group Limited, priority 2011, published 2013) can be followed below.

Where a name gives a salt, the structure may show the parent alone. Read-outs that look alike come from different tables or passages of the source.

Experiment [1] concerns the target T1, recombinant human Lp-PLA2 (Homo sapiens, UniProt Q13093).
T1 sequence (Q13093 22-441): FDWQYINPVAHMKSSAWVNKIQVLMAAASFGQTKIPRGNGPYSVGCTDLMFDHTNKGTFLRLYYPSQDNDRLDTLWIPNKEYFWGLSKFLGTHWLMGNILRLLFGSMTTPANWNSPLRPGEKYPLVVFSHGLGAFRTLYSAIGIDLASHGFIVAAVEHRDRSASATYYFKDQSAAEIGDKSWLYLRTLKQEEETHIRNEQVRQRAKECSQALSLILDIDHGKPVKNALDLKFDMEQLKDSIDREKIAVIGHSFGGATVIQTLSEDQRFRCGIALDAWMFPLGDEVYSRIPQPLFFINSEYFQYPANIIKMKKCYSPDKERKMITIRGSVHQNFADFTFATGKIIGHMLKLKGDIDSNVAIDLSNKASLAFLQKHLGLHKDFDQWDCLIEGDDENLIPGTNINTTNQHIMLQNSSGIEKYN
In words: Recombinant human Lp-PLA2 assay (rhLp-PLA2, PED6 assay). Format: biochemical. The note with it: upper limit for pIC50 in this assay is 9.3. An excerpt: (1) Recombinant Human Lp-PLA2 Assay (rhLp-PLA2) (Also Referred to as “PED6” Assay)
N-((6-(2,4-dinitrophenyl)amino)-hexanoyl)-2-(4,4-difluoro-5,7-dimethyl-4-bora-3a,4a-diaza-s-indacene-3-pentanoyl)-1-hexadecanoyl-sn-glycero-3-phosphoethanolamine, triethylammonium salt (PED6) is a commercially available fluorescently-labeled phospholipid, which is commercially available from Invitrogene and Molecular Probes. There is a quenching […] and a Bodipy fluorescein (FL) group in the sn2 position. Upon cleavage with Lp-PLA2, the Bodipy FL group is liberated and then may result in an increase in fluorescence. Inhibitors of Lp-PLA2 therefore prevent this cleavage and no fluorescent increase is observed.
The PED6 assay was run as an unquenched 10 μL assay. The source plate containing the compounds to be tested was prepared by making 1:3 (by volume) serial dilution of the compounds within DMSO on 384-well microplate. Then, 0.01 μL of the compounds on compound source plate were transferred into 384 well Greiner 784076 (black) plates using ECHO liquid dispenser. 5 μL of recombinant human Lp-PLA2 enzyme (4 nM (or 110 pM) rhLp-PLA2 in assay buffer of 50 mM HEPES, pH 7.4, 150 mM NaCl, 1 mM CHAPS) was added to each well of the plate. Plates were centrifuged for 10 sec at 500 rpm. After 30 minutes preincubation, 5 μL of substrate ([…] (or 5 μM) PED6 [from 5 mM DMSO stock] in assay buffer of 50 mM HEPES, pH 7.4, 150 mM NaCl, 1 mM CHAPS) was added to 384 well Greiner 784076 (black) plates. Plates were centrifuged for 10 sec at 500 rpm. The plate was covered to protect it from light and incubated for 20 min at room temperature. The plates were read for fluorescence intensity at ex: 480/em: 540 using ViewLux microplate imager for Envision spectrofluoroimeters pIC50 data, curve and QC analysis was conducted by using XL fit module in Excel.
The compounds described below were tested generally according to the PED6 assay described above.

For another experiment, the target named is T2, Lp-PLA2 in human plasma (Homo sapiens, UniProt Q13093).
T2 construct: from tissue; host or cells: pooled human plasma
T2 sequence (Q13093 22-441): T1 sequence (Q13093 22-441)
In words: Lp-PLA2 human plasma assay (Thio-PAF assay). The conditions noted are these: pooled human plasma; read-out: pIC50 values in the thio-PAF assay (converted). Format: biochemical. An excerpt: The human plasma assay utilizes a thioester analog of PAF (phosphatidylcholine), where hydrolysis yields to the formation of a phospholipid containing a free thiol group. The amount of thiol is quantitated continuously by reacting with CPM (7-diethylamino-3-(4′-maleimidylphenyl)-4-methylcoumarin), a maleimide which increases in fluoresence after Michael addition of thiols. This assay may detect the activity of Lp-PLA2 in human plasma, as determined by specific inhibition by Lp-PLA2 inhibitors.
The thio-PAF assay was run as a quenched 15 μL assay. Compounds source plate was prepared by making 1:3 (by volume) serial dilution of the compounds into pure DMSO on 384-well microplate. 0.01 μL of compounds on compound source plate were transferred to 384 well Greiner 784076 (black) low-volume plates by ECHO liquid dispenser. 8 μL pooled human plasma, which was previously aliquoted and frozen, was added. Plates were centrifuged for 10 sec at 500 rpm. After 30 minutes preincubation, 2 μL of substrate solution comprising 2.5 mM 2-thio-PAF [from ethanol stock], […] CPM [from a DMSO stock] and 3.2 mM NEM (N-ethylmaleimide) [made fresh daily in DMSO] in assay buffer of 50 mM HEPES, pH 7.4, 150 mM NaCl, 1 mM CHAPS was added to 384 well Greiner 784076 (black) low-volume plates by BRAVO liquid handling station. After 2 mins, reaction was quenched with 5 μL of 5% aqueous trifluoroacetic acid (TFA). Plates were covered to protect from light and incubated for 40 min at room temperature. Plates were read at ex: 380/em: 485 using—Envision microplate reader. pIC50 data, curve and QC analysis was conducted by using XLFit module in Excel.

The mark [2] stands for this setting: read-out: pIC50 values in the PED6 assay (converted).
[3] abbreviates: Table 1, read-out: rhLp-PLA2 (PED6 assay) (pIC50) (converted).

For `CN1CCCn2c1cc(OCc1ccc(Oc3ccc(Cl)c(C(F)(F)F)c3)cc1)nc2=O` [Example 6, 8-((4-(4-chloro-3-(trifluoromethyl)phenoxy)benzyl)oxy)-1-methyl-3,4-dihydro-1H-pyrimido[1,6-a]pyrimidin-6(2H)-one], the IC50 in experiment [1] (setting [2]) is ≤ 10 nM; on Lp-PLA2 in human plasma it was ≤ 1000 nM.
On the same counts, the results for `Cc1ccc(Oc2ccc(COc3cc4n(c(=O)n3)CCCN4C)cc2C#N)cn1` [Example 56, 5-(((1-methyl-6-oxo-2,3,4,6-tetrahydro-1H-pyrimido[1,6-a]pyrimidin-8-yl)oxy)methyl)-2-((6-methylpyridin-3-yl)oxy)benzonitrile] are ≤ 1 nM and ≤ 100 nM.
On the same counts, the results for `CN1CCCn2c1cc(OCc1ccc(F)c(F)c1)nc2=O` [Example 10, 8-((3,4-difluorobenzyl)oxy)-1-methyl-3,4-dihydro-1H-pyrimido[1,6-a]pyrimidin-6(2H)-one, trifluoroacetic acid salt] are ≤ 10 nM and ≤ 100 nM.
For `CN1CCCn2c1cc(OCc1cc(F)c(Oc3ccc(F)c(Cl)c3)c(F)c1)nc2=O` [Example 83, 8-((4-(3-chloro-4-fluorophenoxy)-3,5-difluorobenzyl)oxy)-1-methyl-3,4-dihydro-1H-pyrimido[1,6-a]pyrimidin-6(2H)-one], the values for the IC50 (in experiment [1] (setting [3]); in experiment [1] (setting [2]); on Lp-PLA2 in human plasma) were < 0.501 nM, ≤ 1 nM and ≤ 100 nM, respectively.
`O=c1nc(OCc2ccc(Oc3ccc(F)c(C(F)(F)F)c3)cc2)cc2n1CCCN2` [Example 100, 8-((4-(4-fluoro-3-(trifluoromethyl)phenoxy)benzyl)oxy)-3,4-dihydro-1H-pyrimido[1,6-a]pyrimidin-6(2H)-one]: the IC50 is ≤ 1 nM in experiment [1] (setting [2]) and ≤ 100 nM on Lp-PLA2 in human plasma.
As to `CN1CCCn2c1cc(OCc1ccc(Oc3ccc(C(F)(F)F)cn3)c(C#N)c1)nc2=O` [Example 2, 5-(((1-methyl-6-oxo-2,3,4,6-tetrahydro-1H-pyrimido[1,6-a]pyrimidin-8-yl)oxy)methyl)-2-((5-(trifluoromethyl)pyridin-2-yl)oxy)benzonitrile], the IC50 is 2.51 nM in experiment [1] (setting [3]), ≤ 10 nM in experiment [1] (setting [2]) and ≤ 100 nM at Lp-PLA2 in human plasma.
Regarding `CN1CCCn2c1cc(OCc1ccc(Oc3ccc(F)c(F)c3)c(F)c1)nc2=O` [Example 5, 8-((4-(3,4-difluorophenoxy)-3-fluorobenzyl)oxy)-1-methyl-3,4-dihydro-1H-pyrimido[1,6-a]pyrimidin-6(2H)-one], the IC50 was ≤ 10 nM in experiment [1] (setting [2]) and ≤ 100 nM on Lp-PLA2 in human plasma.
Taken in the same sequence, the figures for `O=c1nc(OCc2ccc(Oc3ccc(F)c(F)c3)c(F)c2)cc2n1CCCN2` [Example 117, 8-((4-(3,4-difluorophenoxy)-3-fluorobenzyl)oxy)-3,4-dihydro-1H-pyrimido[1,6-a]pyrimidin-6(2H)-one] were ≤ 1 nM and ≤ 100 nM.
For the molecule `CN1CCCn2c1cc(OCc1cc(F)cc(F)c1)nc2=O` [Example 31, 8-((3,5-difluorobenzyl)oxy)-1-methyl-3,4-dihydro-1H-pyrimido[1,6-a]pyrimidin-6(2H)-one], the IC50 at Lp-PLA2 in human plasma is ≤ 1000 nM.
The same measure, in the same setting: for `O=c1nc(OCCc2ccc(F)c(F)c2)cc2n1CCCN2` [Example 111, 8-(3,4-difluorophenethoxy)-3,4-dihydro-1H-pyrimido[1,6-a]pyrimidin-6(2H)-one] the value was ≤ 1000 nM; for `CN1CCCn2c1cc(OCc1cccc(F)c1)nc2=O` [Example 37, 8-((3-fluorobenzyl)oxy)-1-methyl-3,4-dihydro-1H-pyrimido[1,6-a]pyrimidin-6(2H)-one], ≤ 100 nM; for `CN1CCCn2c1cc(OCc1ccc(F)cc1F)nc2=O` [Example 20, 8-((2,4-difluorobenzyl)oxy)-1-methyl-3,4-dihydro-1H-pyrimido[1,6-a]pyrimidin-6(2H)-one], ≤ 1000 nM.
For `CN1CCCn2c1cc(OCc1ccc(Oc3cncnc3)c(C#N)c1)nc2=O` [Example 86, 5-(((1-methyl-6-oxo-2,3,4,6-tetrahydro-1H-pyrimido[1,6-a]pyrimidin-8-yl)oxy)methyl)-2-(pyrimidin-5-yloxy)benzonitrile], at Lp-PLA2 in human plasma, the IC50 was ≤ 1000 nM.
As for `CN1CCCn2c1cc(OCCc1ccc(Oc3ccc(F)c(F)c3)cc1)nc2=O` [Example 110, 8-(4-(3,4-difluorophenoxy)phenethoxy)-1-methyl-3,4-dihydro-1H-pyrimido[1,6-a]pyrimidin-6(2H)-one], in experiment [1] (setting [2]), the IC50 is ≤ 10 nM.
With `O=c1nc(OCCc2ccc(Cl)c(Cl)c2)cc2n1CCCN2` [Example 112, 8-(3,4-dichlorophenethoxy)-3,4-dihydro-1H-pyrimido[1,6-a]pyrimidin-6(2H)-one], the IC50 at Lp-PLA2 in human plasma is ≤ 100 nM.
The same measure, in the same setting: for `CN1CCCn2c1cc(NCCc1ccc(Oc3ccc(Cl)c(C(F)(F)F)c3)cc1)nc2=O` [Example 9, 8-((4-(4-chloro-3-(trifluoromethyl)phenoxy)phenethyl)amino)-1-methyl-3,4-dihydro-1H-pyrimido[1,6-a]pyrimidin-6(2H)-one, trifluoroacetic acid salt] the value was ≤ 1000 nM.
Still for that read-out and setting: for `CN1CCCn2c1cc(OCc1cccc(F)c1F)nc2=O` [Example 12, 8-((2,3-difluorobenzyl)oxy)-1-methyl-3,4-dihydro-1H-pyrimido[1,6-a]pyrimidin-6(2H)-one] the value was ≤ 1000 nM.
For `Cc1ccc(Oc2ccc(COc3cc4n(c(=O)n3)CCCN4)cc2)cc1F` [Example 108, 8-((4-(3-fluoro-4-methylphenoxy)benzyl)oxy)-3,4-dihydro-1H-pyrimido[1,6-a]pyrimidin-6(2H)-one], the IC50 in experiment [1] (setting [2]) was ≤ 10 nM.
For the molecule `CN1CCCn2c1cc(OCc1ccc(F)cc1)nc2=O` [Example 8, 8-((4-fluorobenzyl)oxy)-1-methyl-3,4-dihydro-1H-pyrimido[1,6-a]pyrimidin-6(2H)-one], at Lp-PLA2 in human plasma, the IC50 is ≤ 1000 nM.
Still for that read-out and setting: in the case of `CN1CCCn2c1cc(OCc1cccc(C#N)c1)nc2=O` [Example 27, 3-(((1-methyl-6-oxo-2,3,4,6-tetrahydro-1H-pyrimido[1,6-a]pyrimidin-8-yl)oxy)methyl)benzonitrile] it was ≤ 100 nM; in that of `CN1CCCn2c1cc(SCc1ccc(F)cc1)nc2=O` [Example 66, 8-(4-Fluoro-benzylsulfanyl)-1-methyl-1,2,3,4-tetrahydro-pyrimido[1,6-a]pyrimidin-6-one], ≤ 1000 nM.
As to `CN1CCCn2c1cc(OCc1ccc(Oc3ccc(F)c(F)c3)cc1)nc2=O` [Example 14, 8-((4-(3,4-difluorophenoxy)benzyl)oxy)-1-methyl-3,4-dihydro-1H-pyrimido[1,6-a]pyrimidin-6(2H)-one], the IC50 in experiment [1] (setting [2]) is ≤ 10 nM.
As for `CN1CCCn2c1cc(OCc1cc(F)cc(C#N)c1)nc2=O` [Example 33, 3-fluoro-5-(((1-methyl-6-oxo-2,3,4,6-tetrahydro-1H-pyrimido[1,6-a]pyrimidin-8-yl)oxy)methyl)benzonitrile], the IC50 at Lp-PLA2 in human plasma is ≤ 100 nM.
